According to ChEMBL document CHEMBL3044945, “Synthesis of 1,3,5-trisubstituted pyrazoline nucleus containing compounds and screening for antimicrobial activity” (2012):
≈ marks a conversion by molar mass, not a printed value.

What was measured:
Type in all cases: functional
[1] = tested on: Bacillus subtilis; assay: Antibacterial activity against Bacillus subtilis MTCC 441 at 1000 ug/ml after 48 hr by cup-plate method; conditions: MTCC 441, 48 h, read-out: DIZ
[2] = tested on: Pseudomonas fluorescens; assay: Antibacterial activity against Pseudomonas fluorescens MTCC 2421 at 100 ug/ml after 48 hr by cup-plate method; conditions: MTCC 2421, 48 h, read-out: DIZ
[3] = tested on: Bacillus subtilis; assay: Antibacterial activity against Bacillus subtilis MTCC 441 at 750 ug/ml after 48 hr by cup-plate method; conditions: MTCC 441, 48 h, read-out: DIZ
[4] = tested on: Pseudomonas fluorescens; assay: Antibacterial activity against Pseudomonas fluorescens MTCC 2421 at 750 ug/ml after 48 hr by cup-plate method; conditions: MTCC 2421, 48 h, read-out: DIZ
[5] = tested on: Escherichia coli; assay: Antibacterial activity against Escherichia coli MTCC 1573 at 1250 ug/ml after 48 hr by cup-plate method; conditions: MTCC 1573, 48 h, read-out: DIZ
[6] = tested on: Staphylococcus aureus; assay: Antibacterial activity against Staphylococcus aureus MTCC 1430 at 1250 ug/ml after 48 hr by cup-plate method; conditions: MTCC 1430, 48 h, read-out: DIZ
[7] = tested on: Pseudomonas aeruginosa; assay: Antibacterial activity against Pseudomonas aeruginosa MTCC 424 at 250 ug/ml after 48 hr by cup-plate method; conditions: MTCC 424, 48 h, read-out: DIZ
[8] = tested on: Bacillus subtilis; assay: Antibacterial activity against Bacillus subtilis MTCC 441 at 500 ug/ml after 48 hr by cup-plate method; conditions: MTCC 441, 48 h, read-out: DIZ
[9] = tested on: Escherichia coli; assay: Antibacterial activity against Escherichia coli MTCC 1573 at 500 ug/ml after 48 hr by cup-plate method; conditions: MTCC 1573, 48 h, read-out: DIZ
[10] = tested on: Aspergillus niger; assay: Antifungal activity against Aspergillus niger MTCC 2546 at 250 ug/ml after 48 hr by cup-plate method; conditions: MTCC 2546, 48 h, read-out: DIZ
[11] = tested on: Bacillus pumilus; assay: Antibacterial activity against Bacillus pumilus MTCC 1456 at 250 ug/ml after 48 hr by cup-plate method; conditions: MTCC 1456, 48 h, read-out: DIZ
[12] = tested on: Micrococcus luteus; assay: Antibacterial activity against Micrococcus luteus MTCC 1538 at 1250 ug/ml after 48 hr by cup-plate method; conditions: MTCC 1538, 48 h, read-out: DIZ
[13] = tested on: Escherichia coli; assay: Antibacterial activity against Escherichia coli MTCC 1573 at 1000 ug/ml after 48 hr by cup-plate method; conditions: MTCC 1573, 48 h, read-out: DIZ
[14] = tested on: Escherichia coli; assay: Antibacterial activity against Escherichia coli MTCC 1573 after 24 to 48 hr by tube dilution method
[15] = tested on: Bacillus subtilis; assay: Antibacterial activity against Bacillus subtilis MTCC 441 at 250 ug/ml after 48 hr by cup-plate method; conditions: MTCC 441, 48 h, read-out: DIZ
[16] = tested on: Aspergillus niger; assay: Antifungal activity against Aspergillus niger MTCC 2546 at 100 ug/ml after 48 hr by cup-plate method; conditions: MTCC 2546, 48 h, read-out: DIZ
[17] = tested on: Penicillium chrysogenum; assay: Antifungal activity against Penicillium chrysogenum MTCC 161 after 24 to 48 hr by tube dilution method
[18] = tested on: Pseudomonas aeruginosa; assay: Antibacterial activity against Pseudomonas aeruginosa MTCC 424 after 24 to 48 hr by tube dilution method
[19] = tested on: Aspergillus niger; assay: Antifungal activity against Aspergillus niger MTCC 2546 at 500 ug/ml after 48 hr by cup-plate method; conditions: MTCC 2546, 48 h, read-out: DIZ
[20] = tested on: Penicillium chrysogenum; assay: Antifungal activity against Penicillium chrysogenum MTCC 161 at 750 ug/ml after 48 hr by cup-plate method; conditions: MTCC 161, 48 h, read-out: DIZ
[21] = tested on: Staphylococcus aureus; assay: Antibacterial activity against Staphylococcus aureus MTCC 1430 at 750 ug/ml after 48 hr by cup-plate method; conditions: MTCC 1430, 48 h, read-out: DIZ
[22] = tested on: Penicillium chrysogenum; assay: Antifungal activity against Penicillium chrysogenum MTCC 161 at 1000 ug/ml after 48 hr by cup-plate method; conditions: MTCC 161, 48 h, read-out: DIZ
[23] = tested on: Penicillium chrysogenum; assay: Antifungal activity against Penicillium chrysogenum MTCC 161 at 500 ug/ml after 48 hr by cup-plate method; conditions: MTCC 161, 48 h, read-out: DIZ
[24] = tested on: Penicillium chrysogenum; assay: Antifungal activity against Penicillium chrysogenum MTCC 161 at 100 ug/ml after 48 hr by cup-plate method; conditions: MTCC 161, 48 h, read-out: DIZ
[25] = tested on: Aspergillus niger; assay: Antifungal activity against Aspergillus niger MTCC 2546 after 24 to 48 hr by tube dilution method
[26] = tested on: Pseudomonas aeruginosa; assay: Antibacterial activity against Pseudomonas aeruginosa MTCC 424 at 750 ug/ml after 48 hr by cup-plate method; conditions: MTCC 424, 48 h, read-out: DIZ
[27] = tested on: Escherichia coli; assay: Antibacterial activity against Escherichia coli MTCC 1573 at 100 ug/ml after 48 hr by cup-plate method; conditions: MTCC 1573, 48 h, read-out: DIZ
[28] = tested on: Aspergillus niger; assay: Antifungal activity against Aspergillus niger MTCC 2546 at 1000 ug/ml after 48 hr by cup-plate method; conditions: MTCC 2546, 48 h, read-out: DIZ
[29] = tested on: Micrococcus luteus; assay: Antibacterial activity against Micrococcus luteus MTCC 1538 at 1000 ug/ml after 48 hr by cup-plate method; conditions: MTCC 1538, 48 h, read-out: DIZ
[30] = tested on: Pseudomonas aeruginosa; assay: Antibacterial activity against Pseudomonas aeruginosa MTCC 424 at 1000 ug/ml after 48 hr by cup-plate method; conditions: MTCC 424, 48 h, read-out: DIZ
[31] = tested on: Bacillus pumilus; assay: Antibacterial activity against Bacillus pumilus MTCC 1456 at 500 ug/ml after 48 hr by cup-plate method; conditions: MTCC 1456, 48 h, read-out: DIZ
[32] = tested on: Bacillus subtilis; assay: Antibacterial activity against Bacillus subtilis MTCC 441 at 1250 ug/ml after 48 hr by cup-plate method; conditions: MTCC 441, 48 h, read-out: DIZ
[33] = tested on: Pseudomonas aeruginosa; assay: Antibacterial activity against Pseudomonas aeruginosa MTCC 424 at 500 ug/ml after 48 hr by cup-plate method; conditions: MTCC 424, 48 h, read-out: DIZ
[34] = tested on: Bacillus pumilus; assay: Antibacterial activity against Bacillus pumilus MTCC 1456 after 24 to 48 hr by tube dilution method
[35] = tested on: Bacillus pumilus; assay: Antibacterial activity against Bacillus pumilus MTCC 1456 at 1250 ug/ml after 48 hr by cup-plate method; conditions: MTCC 1456, 48 h, read-out: DIZ
[36] = tested on: Staphylococcus aureus; assay: Antibacterial activity against Staphylococcus aureus MTCC 1430 at 1000 ug/ml after 48 hr by cup-plate method; conditions: MTCC 1430, 48 h, read-out: DIZ
[37] = tested on: Pseudomonas fluorescens; assay: Antibacterial activity against Pseudomonas fluorescens MTCC 2421 after 24 to 48 hr by tube dilution method
[38] = tested on: Bacillus pumilus; assay: Antibacterial activity against Bacillus pumilus MTCC 1456 at 1000 ug/ml after 48 hr by cup-plate method; conditions: MTCC 1456, 48 h, read-out: DIZ
[39] = tested on: Escherichia coli; assay: Antibacterial activity against Escherichia coli MTCC 1573 at 750 ug/ml after 48 hr by cup-plate method; conditions: MTCC 1573, 48 h, read-out: DIZ
[40] = tested on: Staphylococcus aureus; assay: Antibacterial activity against Staphylococcus aureus MTCC 1430 at 250 ug/ml after 48 hr by cup-plate method; conditions: MTCC 1430, 48 h, read-out: DIZ
[41] = tested on: Bacillus pumilus; assay: Antibacterial activity against Bacillus pumilus MTCC 1456 at 750 ug/ml after 48 hr by cup-plate method; conditions: MTCC 1456, 48 h, read-out: DIZ
[42] = tested on: Pseudomonas aeruginosa; assay: Antibacterial activity against Pseudomonas aeruginosa MTCC 424 at 1250 ug/ml after 48 hr by cup-plate method; conditions: MTCC 424, 48 h, read-out: DIZ
[43] = tested on: Micrococcus luteus; assay: Antibacterial activity against Micrococcus luteus MTCC 1538 at 750 ug/ml after 48 hr by cup-plate method; conditions: MTCC 1538, 48 h, read-out: DIZ
[44] = tested on: Bacillus subtilis; assay: Antibacterial activity against Bacillus subtilis MTCC 441 at 100 ug/ml after 48 hr by cup-plate method; conditions: MTCC 441, 48 h, read-out: DIZ

MIC [14]: 50 µg/mL (≈ 127 µM)
MIC [17]: 30 µg/mL (≈ 76.2 µM)
MIC [18]: 50 µg/mL (≈ 127 µM)
MIC [25]: 30 µg/mL (≈ 76.2 µM)
MIC [34]: 150 µg/mL (≈ 381 µM)
MIC [37]: 30 µg/mL (≈ 76.2 µM)
SMILES: O=[N+]([O-])c1ccc(C2CC(c3cccc4ccccc34)=NN2c2ccccc2)cc1 (centres undefined)
zone of inhibition at 1000 µg/mL [1]: 19 mm
zone of inhibition at 100 µg/mL [2]: 8 mm
zone of inhibition at 750 µg/mL [3]: 17 mm
zone of inhibition at 750 µg/mL [4]: 13 mm
zone of inhibition at 1250 µg/mL [5]: 18 mm
zone of inhibition at 1250 µg/mL [6]: 18 mm
zone of inhibition at 250 µg/mL [7]: 10 mm
zone of inhibition at 500 µg/mL [8]: 15 mm
zone of inhibition at 500 µg/mL [9]: 11 mm
zone of inhibition at 250 µg/mL [10]: 12 mm
zone of inhibition at 250 µg/mL [11]: 9 mm
zone of inhibition at 1250 µg/mL [12]: 17 mm
zone of inhibition at 1000 µg/mL [13]: 15 mm
zone of inhibition at 250 µg/mL [15]: 14 mm
zone of inhibition at 100 µg/mL [16]: 10 mm
zone of inhibition at 500 µg/mL [19]: 13 mm
zone of inhibition at 750 µg/mL [20]: 15 mm
zone of inhibition at 750 µg/mL [21]: 12 mm
zone of inhibition at 1000 µg/mL [22]: 16 mm
zone of inhibition at 500 µg/mL [23]: 13 mm
zone of inhibition at 100 µg/mL [24]: 10 mm
zone of inhibition at 750 µg/mL [26]: 14 mm
zone of inhibition at 100 µg/mL [27]: 9 mm
zone of inhibition at 1000 µg/mL [28]: 21 mm
zone of inhibition at 1000 µg/mL [29]: 13 mm
zone of inhibition at 1000 µg/mL [30]: 17 mm
zone of inhibition at 500 µg/mL [31]: 10 mm
zone of inhibition at 1250 µg/mL [32]: 21 mm
zone of inhibition at 500 µg/mL [33]: 12 mm
zone of inhibition at 1250 µg/mL [35]: 18 mm
zone of inhibition at 1000 µg/mL [36]: 15 mm
zone of inhibition at 1000 µg/mL [38]: 16 mm
zone of inhibition at 750 µg/mL [39]: 13 mm
zone of inhibition at 250 µg/mL [40]: 10 mm
zone of inhibition at 750 µg/mL [41]: 14 mm
zone of inhibition at 1250 µg/mL [42]: 20 mm
zone of inhibition at 750 µg/mL [43]: 11 mm
zone of inhibition at 100 µg/mL [44]: 12 mm
